Test systems include K-562 leukemia; U251 CNS; SF-268 CNS; HT29 colon; TK-10 renal; HOP-62 NSCLC; SN12C renal; EKVX NSCLC; M14 melanoma.
Experiment in all cases: NCI tumour cell line growth inhibition, 48 h

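Tested at 5 concentrations; 48 h exposure; 96-well plates; endpoints linearly interpolated, else capped at highest concentration. Abbreviation: GI50, concentration required for 50% inhibition of growth. TGI marks complete inhibition of growth.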 Bounds are passed on as bounds.

With `CN1CCN(Cc2ccc(NC(=O)c3cncc(C#Cc4cnc(N)c5ccc(F)cc45)c3)cc2C(F)(F)F)CC1`, the GI50 was 0.0128 µM in the assay with K-562 leukemia; 2.14 µM in the assay on U251 CNS; 1.79 µM with SF-268 CNS; 0.956 µM in the assay with HT29 colon; 2.44 µM in the assay with TK-10 renal; 2.89 µM in the assay with HOP-62 NSCLC. In addition, the GI50 was 1.2 µM in the assay on SN12C renal, 3.84 µM in the assay on EKVX NSCLC and 0.974 µM in the assay on M14 melanoma. Also, the TGI was 0.683 µM with K-562 leukemia; 6.56 µM with U251 CNS; 8.92 µM in the assay with SF-268 CNS; 4.14 µM in the assay on HT29 colon; 6.68 µM in the assay with TK-10 renal; 7.24 µM with HOP-62 NSCLC. Besides, the TGI is 4.89 µM with SN12C renal, 7.89 µM in the assay on EKVX NSCLC and 4.4 µM with M14 melanoma.

Regarding `O=[N+]([O-])c1c(/C=N/Nc2ccccc2)oc(-c2ccc3c(c2)OCO3)c1-c1ccc2c(c1)OCO2`, the TGI is 14.5 µM in the assay with K-562 leukemia; above 100 µM with SF-268 CNS; above 100 µM with HT29 colon; above 100 µM in the assay with TK-10 renal; above 100 µM in the assay on HOP-62 NSCLC; above 100 µM in the assay with SN12C renal. The TGI in the assay on EKVX NSCLC and in the assay on M14 melanoma was above 100 µM throughout.

As for `CN(C)c1ccc(/C=C2\Oc3cc(O)ccc3C2=O)cc1`, the TGI in the assay on K-562 leukemia, in the assay with U251 CNS, in the assay with SF-268 CNS, in the assay on TK-10 renal, with HOP-62 NSCLC and in the assay with SN12C renal was above 100 µM throughout. Also, the TGI with EKVX NSCLC and in the assay with M14 melanoma was above 100 µM each time.

Consider `CCCCCCC/C=C/[C@H]1O[C@]23C(=O)C[C@@]4(C[C@@H](OC5OC(CO)C(O)C(O)C5O)C[C@@H]4[C@H]2C=C1C)OC3=O` (some centres not stated), for which the GI50 was 2.2 µM with K-562 leukemia; 3.55 µM in the assay on U251 CNS; 5.12 µM in the assay on SF-268 CNS; 4.18 µM with HT29 colon; 6.14 µM in the assay with TK-10 renal; 5.46 µM with SN12C renal. Also, the results for the GI50 in the assay with EKVX NSCLC and in the assay with M14 melanoma were 6.72 µM and 3.58 µM, respectively. The TGI in the assay with K-562 leukemia was determined as 18.5 µM; with U251 CNS, 7.63 µM; with SF-268 CNS it was 11.1 µM; in the assay on HT29 colon it was 11.9 µM; with TK-10 renal, 12.6 µM; in the assay with SN12C renal, 14.9 µM. The TGI came to 17.8 µM in the assay on EKVX NSCLC and 8.43 µM in the assay with M14 melanoma.

Turning to `C=CCn1c(C)nc2cc(Nc3nc(Nc4ccc5nc(C)n(CC=C)c5c4)c4ccccc4n3)ccc21`, the GI50 with SF-268 CNS was 1.28 µM; with HT29 colon it was 0.19 µM; in the assay on TK-10 renal it was 0.78 µM. For the same molecule, the TGI with SF-268 CNS is 3.1 µM; in the assay with HT29 colon, 0.348 µM; with TK-10 renal, 2.1 µM.

Turning to `Cc1ccc(C(=O)c2oc3ccc4c(C)cc(=O)oc4c3c2C)cc1`, the GI50 in the assay with K-562 leukemia was 5.53 µM; in the assay with U251 CNS it was 3.64 µM; in the assay with SF-268 CNS it was 10.4 µM; in the assay on HT29 colon it was 8.9 µM; in the assay on TK-10 renal, 45.1 µM; with HOP-62 NSCLC, 12.2 µM. The GI50 in the assay with SN12C renal was 10.4 µM. Also, the TGI in the assay with K-562 leukemia is above 100 µM; with U251 CNS, above 100 µM; in the assay on SF-268 CNS, 98.8 µM; in the assay on HT29 colon, above 100 µM; in the assay on TK-10 renal, above 100 µM; in the assay with HOP-62 NSCLC, above 100 µM. In the assay with SN12C renal, this molecule yielded a TGI above 100 µM.

With `N#CCCc1nc2ccc(Br)cc2c(=O)n1CCO`, the TGI in the assay on K-562 leukemia, in the assay with SF-268 CNS, in the assay with TK-10 renal, in the assay with HOP-62 NSCLC, with SN12C renal and in the assay with EKVX NSCLC was above 100 µM throughout. Besides, the TGI with M14 melanoma is above 100 µM.

As for `CC[N+](CCCCCCCCCC[N+](CC)(c1ccccn1)c1ccccn1)(c1ccccn1)c1ccccn1`, the GI50 with K-562 leukemia is 0.49 µM; with U251 CNS, 0.526 µM; in the assay with SF-268 CNS, 1.02 µM; in the assay with HT29 colon, 0.764 µM; with TK-10 renal it was 3.65 µM; in the assay with HOP-62 NSCLC it was 2.15 µM. Moreover, the values for the GI50 in the assay with SN12C renal and in the assay with M14 melanoma were 0.431 µM and 2.57 µM, respectively. The TGI in the assay with K-562 leukemia was 16 µM; in the assay with U251 CNS, 24 µM; with SF-268 CNS, 19.5 µM; with HT29 colon it was 12.1 µM; with TK-10 renal, 24.5 µM; with HOP-62 NSCLC, 9.15 µM. Besides, the TGI is 11 µM in the assay with SN12C renal and 30.5 µM in the assay on M14 melanoma.

`O=c1cc(-c2ccccc2)[nH]c2cccc(S)c12`: the TGI was above 100 µM in the assay with K-562 leukemia; 11.4 µM with U251 CNS; above 100 µM with SF-268 CNS; above 100 µM in the assay with HOP-62 NSCLC; above 100 µM with SN12C renal; above 100 µM with EKVX NSCLC. Moreover, the TGI with M14 melanoma is above 100 µM.

For `COC1=CC23C=CC1[C@@H](c1ccccc1)C2=C(C)C(=O)N3C(=O)NC1CCCCC1` (some centres not stated), the TGI in the assay on K-562 leukemia is above 100 µM; with U251 CNS, 35.4 µM; in the assay on SF-268 CNS, 33.6 µM; in the assay on HT29 colon it was 41.1 µM; with TK-10 renal, 84.3 µM; in the assay on HOP-62 NSCLC, 50.2 µM. The TGI in the assay on EKVX NSCLC is above 100 µM; in the assay with M14 melanoma it was 38.8 µM.

`Oc1ccc(Br)cc1Sc1cc(Br)ccc1O`: the GI50 with K-562 leukemia was 5.12 µM; in the assay with U251 CNS, 4.42 µM; in the assay on SF-268 CNS, 7.68 µM; with HT29 colon it was 19 µM; with HOP-62 NSCLC it was 13.6 µM; in the assay on SN12C renal, 3.89 µM. The GI50 in the assay with M14 melanoma is 10.7 µM. The TGI with K-562 leukemia was 32 µM; with U251 CNS it was 18.4 µM; with SF-268 CNS, 26.7 µM; with HT29 colon, 34.1 µM; in the assay with HOP-62 NSCLC, 30.2 µM; in the assay on SN12C renal, 16.8 µM. This molecule also yielded a TGI in the assay on M14 melanoma of 27.9 µM.

Values taken from PubChem BioAssay (NCI).
